The source of these data is ChEMBL document CHEMBL3822409, “Synthesis and antitubercular activity of new 1,3,4-oxadiazoles bearing pyridyl and thiazolyl scaffolds” (Bioorg Med Chem Lett, 2016).

Molecules are shown by their SMILES. Converted amounts (≈) assume the structure as drawn.

Assay [1] relates to Mycobacterium tuberculosis variant bovis BCG. Put plainly: Antimycobacterial activity against dormant stage of Mycobacterium bovis BCG ATCC 35734 measured on day 12 by nitrate reductase assay. The note with it: ATCC 35734, 288 h. In kind it is functional, organism-based.
Assay [2] has the same test system. Put plainly: Antimycobacterial activity against active stage of Mycobacterium bovis BCG ATCC 35734 measured on day 8 by nitrate reductase assay. In kind it is functional, organism-based. The note with it: ATCC 35734, 192 h.

The IC50 is the point on the concentration scale where inhibition reaches its midpoint. Low readings indicate greater potency, high ones weaker potency. As usually defined, the MIC is the lowest concentration that inhibits growth of the organism. Lower therefore signals greater potency.

In assay [1], `COc1ccccc1-c1nnc(-c2sc(-c3cccnc3)nc2C)o1` gave an IC50 of 1.8 µg/mL (≈ 5.14 µM) and an MIC of 3.95 µg/mL (≈ 11.3 µM). In assay [2], this compound showed an IC50 of 1.46 µg/mL (≈ 4.17 µM) and an MIC of 2.65 µg/mL (≈ 7.56 µM).
For `Cc1nc(-c2cccnc2)sc1-c1nnc(-c2ccncc2)o1`, in that order: 28 µg/mL (≈ 87 µM), 42.2 µg/mL (≈ 131 µM), 24.7 µg/mL (≈ 76.8 µM) and 40 µg/mL (≈ 125 µM).
`Cc1nc(-c2cccnc2)sc1-c1nnc(Cc2ccccc2)o1`: in assay [1], the IC50 is 5.26 µg/mL (≈ 15.7 µM) and the MIC was found to be 10.4 µg/mL (≈ 31 µM). In assay [2], half-maximal inhibition (IC50) was put at 7.2 µg/mL (≈ 21.5 µM) and the MIC is 11.3 µg/mL (≈ 33.8 µM).
For `Cc1nc(-c2cccnc2)sc1-c1nnc(-c2ccccc2Cl)o1`, in that order: 1.47 µg/mL (≈ 4.14 µM), 4.77 µg/mL (≈ 13.4 µM), 2.62 µg/mL (≈ 7.38 µM) and 5.16 µg/mL (≈ 14.5 µM).
The matching figures for `Cc1nc(-c2cccnc2)sc1-c1nnc(-c2cccnc2)o1`: 56.3 µg/mL (≈ 175 µM), 94.9 µg/mL (≈ 295 µM), 24.5 µg/mL (≈ 76.2 µM) and 40.4 µg/mL (≈ 126 µM).
The matching figures for `Cc1ccc(-c2nnc(-c3sc(-c4cccnc4)nc3C)o2)cc1`: 15.2 µg/mL (≈ 45.5 µM), over 30 µg/mL, 14.2 µg/mL (≈ 42.6 µM) and over 30 µg/mL.
In assay [1], `Cc1nc(-c2cccnc2)sc1-c1nnc(-c2ccc([N+](=O)[O-])cc2)o1` had an IC50 of 24.9 µg/mL (≈ 68.2 µM) and an MIC of over 30 µg/mL. In assay [2], this compound displayed an IC50 of 22.5 µg/mL (≈ 61.6 µM) and an MIC of over 30 µg/mL.
As to `Cc1nc(-c2cccnc2)sc1-c1nnc(-c2ccccc2)o1`, in assay [1], the IC50 is over 30 µg/mL and the MIC was over 30 µg/mL. In assay [2], this compound came in with an IC50 of over 30 µg/mL and an MIC of over 30 µg/mL.
In assay [1], `Cc1nc(-c2cccnc2)sc1-c1nnc(-c2ccccc2[N+](=O)[O-])o1` registered an IC50 of 3.55 µg/mL (≈ 9.72 µM) and an MIC of 5.89 µg/mL (≈ 16.1 µM). For the same compound, in assay [2], half-maximal inhibition (IC50) required 1.68 µg/mL (≈ 4.6 µM) and it took 2.56 µg/mL (≈ 7.01 µM) to inhibit growth (MIC).
Regarding `Cc1nc(-c2cccnc2)sc1-c1nnc(-c2ccc(Br)cc2)o1`, in assay [1], the IC50 is over 30 µg/mL and the MIC was over 30 µg/mL. Besides, in assay [2], the IC50 was over 30 µg/mL and the MIC is over 30 µg/mL.
As for `Cc1nc(-c2cccnc2)sc1-c1nnc(-c2ccc(O)cc2)o1`, the IC50 in assay [1] and in assay [2] was over 30 µg/mL each time. In addition, the MIC in assay [1] and in assay [2] was over 30 µg/mL each time.
In assay [1], `Cc1nc(-c2cccnc2)sc1-c1nnc(-c2ccc(Cl)cc2)o1` returned an IC50 of over 30 µg/mL and an MIC of over 30 µg/mL. In assay [2], this compound showed a concentration for half-maximal inhibition (IC50) of over 30 µg/mL and an MIC of over 30 µg/mL.
As for `Cc1cccc(-c2nnc(-c3sc(-c4cccnc4)nc3C)o2)c1`, the IC50 in assay [1] and in assay [2] was over 30 µg/mL throughout. The MIC in assay [1] and in assay [2] was over 30 µg/mL each time.
Take `Cc1nc(-c2cccnc2)sc1-c1nnc(-c2cccc(Cl)c2Cl)o1`: the IC50 in assay [1] and in assay [2] was over 30 µg/mL throughout. Besides, the MIC in assay [1] and in assay [2] was over 30 µg/mL in each case.
As for `CO[C@H]1/C=C/O[C@@]2(C)Oc3c(C)c(O)c4c(O)c(c(/C=N/N5CCN(C)CC5)c(O)c4c3C2=O)NC(=O)/C(C)=C\C=C\[C@H](C)[C@H](O)[C@@H](C)[C@@H](O)[C@@H](C)[C@H](OC(C)=O)[C@@H]1C` [RIFAMPIN], the figures for the IC50 in assay [1] and in assay [2] were 0.0027 µg/mL (≈ 0.00328 µM) and 0.003 µg/mL (≈ 0.00365 µM), respectively. In addition, the results for the MIC in assay [1] and in assay [2] were 0.05 µg/mL (≈ 0.0608 µM) and 0.08 µg/mL (≈ 0.0972 µM), respectively.
In assay [1], `Cc1ccccc1-c1nnc(-c2sc(-c3cccnc3)nc2C)o1` gave a concentration for half-maximal inhibition (IC50) of 1.44 µg/mL (≈ 4.31 µM) and an MIC of 4.91 µg/mL (≈ 14.7 µM). Moreover, in assay [2], the IC50 worked out at 2.69 µg/mL (≈ 8.04 µM) and the MIC was found to be 5.84 µg/mL (≈ 17.5 µM).
